According to US4243408A, “Herbicidal N-triazolylmethyl-substituted alpha-haloacetanilide” (Chevron Research Company, priority 1978, dated 1981):

Key:
Type in all cases: in vivo
[1] = test system: Pigweed (Amaranthus retroflexus); assay: Pre-Emergent Test, herbicidal effectiveness; conditions: pre-emergence, 504 h, 33 micrograms per cm^2, 3 weeks, 0-to-100 scale, read-out: Herbicidal Effectiveness, % Control Pre, P
Protocol: (§1) An acetone solution of the test compound was prepared by mixing 750 mg of the compound, 220 mg of a nonionic surfactant and 25 ml of acetone. This solution was added to approximately 125 ml of water containing 156 mg of surfactant.
(§2) Seeds of the test vegetation were planted in a pot of soil and the test solution was sprayed uniformly onto the soil surface at a dose of 33 micrograms/cm^2. The pot was watered and placed in a greenhouse. […] At the end of this period, the herbicidal effectiveness of the compound was rated based on the physiological observations. A 0-to-100 scale was used, 0 representing no phytotoxicity, 100 representing complete kill.

[2] = test system: Mustard (Brassica arvensis); assay: Pre-Emergent Test, herbicidal effectiveness; conditions: pre-emergence, 504 h, 33 micrograms per cm^2, 3 weeks, 0-to-100 scale
Protocol: as §1, §2

[3] = test system: Lambsquarter (Chenopodium album); assay: Pre-Emergent Test, herbicidal effectiveness; conditions: pre-emergence, 504 h, 33 micrograms per cm^2, 3 weeks, 0-to-100 scale, read-out: Herbicidal Effectiveness, % Control Pre, L
Protocol: as §1, §2

Wild Oats (Avena fatua) [4] = assay: Pre-Emergent Test, herbicidal effectiveness; conditions: pre-emergence, 504 h, 33 micrograms per cm^2, 3 weeks, 0-to-100 scale, read-out: Herbicidal Effectiveness, % Control Pre, O
Protocol: as §1, §2

Watergrass (Echinochloa) [5] = assay: Pre-Emergent Test, herbicidal effectiveness; conditions: pre-emergence, 504 h, 33 micrograms per cm^2, 3 weeks, 0-to-100 scale, read-out: Herbicidal Effectiveness, % Control Pre, W
Protocol: as §1, §2

[6] = test system: Crabgrass (Digitaria sanguinalis); assay: Pre-Emergent Test, herbicidal effectiveness; conditions: pre-emergence, 504 h, 33 micrograms per cm^2, 3 weeks, 0-to-100 scale, read-out: Herbicidal Effectiveness, % Control Pre, C
Protocol: as §1, §2

[7] = test system: Pigweed (Amaranthus retroflexus); assay: Post-Emergent Test, herbicidal effectiveness; conditions: post-emergence, 504 h, 33 micrograms per cm^2, 3 weeks, 0-to-100 scale, read-out: Herbicidal Effectiveness, % Control Post, P
[8] = test system: Mustard (Brassica arvensis); assay: Post-Emergent Test, herbicidal effectiveness; conditions: post-emergence, 504 h, 33 micrograms per cm^2, 3 weeks, 0-to-100 scale
[9] = test system: Lambsquarter (Chenopodium album); assay: Post-Emergent Test, herbicidal effectiveness; conditions: post-emergence, 504 h, 33 micrograms per cm^2, 3 weeks, 0-to-100 scale, read-out: Herbicidal Effectiveness, % Control Post, L
Wild Oats (Avena fatua) [10] = assay: Post-Emergent Test, herbicidal effectiveness; conditions: post-emergence, 504 h, 33 micrograms per cm^2, 3 weeks, 0-to-100 scale, read-out: Herbicidal Effectiveness, % Control Post, O
Watergrass (Echinochloa) [11] = assay: Post-Emergent Test, herbicidal effectiveness; conditions: post-emergence, 504 h, 33 micrograms per cm^2, 3 weeks, 0-to-100 scale, read-out: Herbicidal Effectiveness, % Control Post, W
[12] = test system: Crabgrass (Digitaria sanguinalis); assay: Post-Emergent Test, herbicidal effectiveness; conditions: post-emergence, 504 h, 33 micrograms per cm^2, 3 weeks, 0-to-100 scale, read-out: Herbicidal Effectiveness, % Control Post, C

SMILES	pest or weed control at 33 µg/cm2 [1]	pest or weed control at 33 µg/cm2 [2]	pest or weed control at 33 µg/cm2 [3]	pest or weed control at 33 µg/cm2 (Wild Oats (Avena fatua) [4])	pest or weed control at 33 µg/cm2 (Watergrass (Echinochloa) [5])	pest or weed control at 33 µg/cm2 [6]	pest or weed control at 5000 µg/mL, 33 µg/cm2 [7]	pest or weed control at 5000 µg/mL, 33 µg/cm2 [8]	pest or weed control at 5000 µg/mL, 33 µg/cm2 [9]	pest or weed control at 5000 µg/mL, 33 µg/cm2 (Wild Oats (Avena fatua) [10])	pest or weed control at 5000 µg/mL, 33 µg/cm2 (Watergrass (Echinochloa) [11])	pest or weed control at 5000 µg/mL, 33 µg/cm2 [12]
CCc1cccc(CC)c1N(Cc1nnc(SC)n1C)C(=O)CCl [Compound 23B]	0%	0%	0%	0%	0%	0%	0%	0%	0%	0%	0%	0%
Cc1nnc(CN(C(=O)CCl)c2cccc(C(F)(F)F)c2)[nH]1 [Compound 26B]	0%	10%	10%	0%	65%	0%	0%	0%	0%	0%	0%	0%
Cc1nnc(CNc2ccccc2C)[nH]1 [Compound 25A]	0%	0%	0%	0%	0%	0%	0%	0%	0%	0%	0%	0%
Cc1cccc(C)c1NCc1nnc(S)n1C [Compound 3, 3-(2,6-dimethylphenylaminomethyl)-4-methyl-5-mercapto-1,2,4-triazole]	0%	0%	0%	0%	0%	0%	0%	0%	0%	0%	0%	0%
Cc1nnc(CCN(C(=O)CCl)c2c(C)cccc2C)[nH]1 [Compound 10B]	0%	0%	0%	15%	95%	80%	0%	35%	25%	25%	55%	40%
CCc1cccc(C)c1N(Cc1nnc(C(C)C)[nH]1)C(=O)CCl [Compound 16B]	95%	95%	100%	100%	100%	100%	40%	40%	35%	70%	75%	70%
CCc1cccc(CC)c1NCc1nnc(SC)n1C [Compound 23A]	0%	0%	0%	0%	0%	0%	0%	0%	0%	0%	0%	0%
Cc1nnc(CNc2c(C)cccc2C)o1 [Compound 1A, 2-(2,6-dimethylphenylaminomethyl)-5-methyl-1,3,4-oxadiazole]	0%	0%	0%	0%	0%	0%	0%	0%	0%	0%	0%	0%
Cc1nnc(CN(C(=O)CCl)c2ccccc2C)[nH]1 [Compound 25B]	70%	45%	100%	0%	100%	97%	0%	0%	0%	0%	40%	0%
Cc1nnc(CN(C(=O)CCl)c2c(C)cccc2C)o1 [Compound 1B, N-(5-methyl-1,3,4-oxadiazol-2-ylmethyl)-2,6-dimethyl-alpha-chloroacetanilide]	87%	45%	50%	90%	100%	100%	0%	0%	0%	0%	0%	0%
CSc1nnc(CN(C(=O)CCl)c2c(C)cccc2C)n1C [Compound 14B]	0%	0%	0%	10%	100%	90%	0%	0%	0%	0%	0%	0%
Cc1cccc(C)c1N(C(=O)CCl)C(C)c1nnc[nH]1 (stereo not drawn) [Compound 12B]	90%	75%	75%	97%	100%	100%	20%	0%	45%	45%	80%	65%
Cc1cccc(C)c1N(CCc1nnc[nH]1)C(=O)CCl [Compound 13]	40%	20%	75%	25%	97%	85%	0%	0%	0%	20%	63%	60%
